Experimental data as given in ChEMBL document CHEMBL3885881, “DrugMatrix”.

Species: Rattus norvegicus
Experiment: DrugMatrix - Regimen: Daily Repeat
Format: toxicity, organism-based, Sprague-Dawley
Parameters: regimen Daily Repeat, gender Male, age 6-8 weeks
Conditions: in vivo, sc, route subcutaneous, […]; for ABSOLUTE BASOPHIL / ABSOLUTE EOSINOPHIL / ABSOLUTE LYMPHOCYTE / ABSOLUTE MONOCYTE / ABSOLUTE SEGMENTED NEUTROPHIL / BASOPHIL / EOSINOPHIL / ERYTHROCYTE COUNT / HEMATOCRIT / HEMOGLOBIN / LEUKOCYTE COUNT / LYMPHOCYTE / MEAN CORPUSCULAR HEMOGLOBIN / MEAN CORPUSCULAR HEMOGLOBIN CONCENTRATION / MEAN CORPUSCULAR VOLUME / MONOCYTE / NEUTROPHIL / NUCLEATED RED BLOOD CELLS / PLATELET COUNT: tissue Blood; for ALANINE AMINOTRANSFERASE / ALBUMIN / ALKALINE PHOSPHATASE / ASPARTATE AMINOTRANSFERASE / BLOOD UREA NITROGEN / CARBON DIOXIDE / CHLORIDE / CHOLESTEROL / CREATINE PHOSPHOKINASE / CREATININE / GLUCOSE / LACTATE DEHYDROGENASE / LIPASE / PHOSPHORUS / POTASSIUM / SODIUM / TOTAL BILIRUBIN / TOTAL PROTEIN / URIC ACID: tissue Plasma
[1] = 47.4 mg/kg, 72 h, dose level Low, time 3 day
[2] = 47.4 mg/kg, 120 h, dose level Low, time 5 day
[3] = 474 mg/kg, 72 h, dose level High, time 3 day
[4] = 474 mg/kg, 120 h, dose level High, time 5 day

O=C(O)C(Cl)(Cl)Cl [TRICHLOROACETIC ACID]
ABSOLUTE BASOPHIL [1]: 0 CELLS/uL
ABSOLUTE EOSINOPHIL [1]: 262.67 CELLS/uL
ABSOLUTE LYMPHOCYTE [1]: 11309 CELLS/uL
ABSOLUTE MONOCYTE [1]: 301 CELLS/uL
ABSOLUTE SEGMENTED NEUTROPHIL [1]: 1027.33 CELLS/uL
BASOPHIL [1]: 0%
EOSINOPHIL [1]: 2%
ERYTHROCYTE COUNT [1]: 5.38 x10E6/uL
HEMATOCRIT [1]: 34.53%
HEMOGLOBIN [1]: 12.9 G/DL
LEUKOCYTE COUNT [1]: 12.9 x10E3/uL
LYMPHOCYTE [1]: 87.67%
MEAN CORPUSCULAR HEMOGLOBIN [1]: 24.07 pg
MEAN CORPUSCULAR HEMOGLOBIN CONCENTRATION [1]: 37.33 G/DL
MEAN CORPUSCULAR VOLUME [1]: 64.37 fL
MONOCYTE [1]: 2.33%
NEUTROPHIL [1]: 8%
NUCLEATED RED BLOOD CELLS [1]: 0 /100WBC
PLATELET COUNT [1]: 1349.67 x10E3/uL
ALANINE AMINOTRANSFERASE [1]: 42.67 u/L
ALBUMIN [1]: 4.2 G/DL
ALKALINE PHOSPHATASE [1]: 412.67 u/L
ASPARTATE AMINOTRANSFERASE [1]: 83.33 u/L
BLOOD UREA NITROGEN [1]: 15.33 mg/dL
CARBON DIOXIDE [1]: 25.67 mmol/L
CHLORIDE [1]: 105.67 MEQ/L
CHOLESTEROL [1]: 63 mg/dL
CREATINE PHOSPHOKINASE [1]: 270.33 u/L
CREATININE [1]: 0.23 mg/dL
GLUCOSE [1]: 155.33 mg/dL
LACTATE DEHYDROGENASE [1]: 325.67 u/L
LIPASE [1]: 8.67 u/L
PHOSPHORUS [1]: 12.73 mg/dL
POTASSIUM [1]: 6.4 MEQ/L
SODIUM [1]: 146.37 MEQ/L
TOTAL BILIRUBIN [1]: 0.17 mg/dL
TOTAL PROTEIN [1]: 5.3 G/DL
URIC ACID [1]: 1.27 mg/dL
ABSOLUTE BASOPHIL [2]: 0 CELLS/uL
ABSOLUTE EOSINOPHIL [2]: 0 CELLS/uL
ABSOLUTE LYMPHOCYTE [2]: 12836 CELLS/uL
ABSOLUTE MONOCYTE [2]: 332 CELLS/uL
ABSOLUTE SEGMENTED NEUTROPHIL [2]: 898.67 CELLS/uL
BASOPHIL [2]: 0%
EOSINOPHIL [2]: 0%
ERYTHROCYTE COUNT [2]: 5.4 x10E6/uL
HEMATOCRIT [2]: 33.93%
HEMOGLOBIN [2]: 12.87 G/DL
LEUKOCYTE COUNT [2]: 14.07 x10E3/uL
LYMPHOCYTE [2]: 91.33%
MEAN CORPUSCULAR HEMOGLOBIN [2]: 23.87 pg
MEAN CORPUSCULAR HEMOGLOBIN CONCENTRATION [2]: 37.93 G/DL
MEAN CORPUSCULAR VOLUME [2]: 62.87 fL
MONOCYTE [2]: 2.33%
NEUTROPHIL [2]: 6.33%
NUCLEATED RED BLOOD CELLS [2]: 0 /100WBC
PLATELET COUNT [2]: 1378 x10E3/uL
ALANINE AMINOTRANSFERASE [2]: 40 u/L
ALBUMIN [2]: 4.2 G/DL
ALKALINE PHOSPHATASE [2]: 302.67 u/L
ASPARTATE AMINOTRANSFERASE [2]: 75.33 u/L
BLOOD UREA NITROGEN [2]: 20 mg/dL
CARBON DIOXIDE [2]: 28.33 mmol/L
CHLORIDE [2]: 105.67 MEQ/L
CHOLESTEROL [2]: 66.33 mg/dL
CREATINE PHOSPHOKINASE [2]: 164.33 u/L
CREATININE [2]: 0.19 mg/dL
GLUCOSE [2]: 166.33 mg/dL
LACTATE DEHYDROGENASE [2]: 114 u/L
LIPASE [2]: 8 u/L
PHOSPHORUS [2]: 13.1 mg/dL
POTASSIUM [2]: 6.29 MEQ/L
SODIUM [2]: 148.4 MEQ/L
TOTAL BILIRUBIN [2]: 0.17 mg/dL
TOTAL PROTEIN [2]: 5.63 G/DL
URIC ACID [2]: 1.6 mg/dL
ABSOLUTE BASOPHIL [3]: 0 CELLS/uL
ABSOLUTE EOSINOPHIL [3]: 47.33 CELLS/uL
ABSOLUTE LYMPHOCYTE [3]: 16441.33 CELLS/uL
ABSOLUTE MONOCYTE [3]: 452 CELLS/uL
ABSOLUTE SEGMENTED NEUTROPHIL [3]: 2492.67 CELLS/uL
BASOPHIL [3]: 0%
EOSINOPHIL [3]: 0.33%
ERYTHROCYTE COUNT [3]: 4.84 x10E6/uL
HEMATOCRIT [3]: 30.03%
HEMOGLOBIN [3]: 11.4 G/DL
LEUKOCYTE COUNT [3]: 19.43 x10E3/uL
LYMPHOCYTE [3]: 85%
MEAN CORPUSCULAR HEMOGLOBIN [3]: 23.57 pg
MEAN CORPUSCULAR HEMOGLOBIN CONCENTRATION [3]: 38.03 G/DL
MEAN CORPUSCULAR VOLUME [3]: 62.03 fL
MONOCYTE [3]: 2.33%
NEUTROPHIL [3]: 12.33%
NUCLEATED RED BLOOD CELLS [3]: 0.33 /100WBC
PLATELET COUNT [3]: 1335.33 x10E3/uL
ALANINE AMINOTRANSFERASE [3]: 56.33 u/L
ALBUMIN [3]: 3.77 G/DL
ALKALINE PHOSPHATASE [3]: 300.33 u/L
ASPARTATE AMINOTRANSFERASE [3]: 95 u/L
BLOOD UREA NITROGEN [3]: 18.33 mg/dL
CARBON DIOXIDE [3]: 24.33 mmol/L
CHLORIDE [3]: 105 MEQ/L
CHOLESTEROL [3]: 68.67 mg/dL
CREATINE PHOSPHOKINASE [3]: 418.33 u/L
CREATININE [3]: 0.19 mg/dL
GLUCOSE [3]: 142.67 mg/dL
LACTATE DEHYDROGENASE [3]: 520.33 u/L
LIPASE [3]: 7.67 u/L
PHOSPHORUS [3]: 12.23 mg/dL
POTASSIUM [3]: 6.31 MEQ/L
SODIUM [3]: 146.47 MEQ/L
TOTAL BILIRUBIN [3]: 0.2 mg/dL
TOTAL PROTEIN [3]: 5.27 G/DL
URIC ACID [3]: 1.37 mg/dL
ABSOLUTE BASOPHIL [4]: 0 CELLS/uL
ABSOLUTE EOSINOPHIL [4]: 102 CELLS/uL
ABSOLUTE LYMPHOCYTE [4]: 13327 CELLS/uL
ABSOLUTE MONOCYTE [4]: 456.67 CELLS/uL
ABSOLUTE SEGMENTED NEUTROPHIL [4]: 2747.67 CELLS/uL
BASOPHIL [4]: 0%
EOSINOPHIL [4]: 0.67%
ERYTHROCYTE COUNT [4]: 5.19 x10E6/uL
HEMATOCRIT [4]: 33.1%
HEMOGLOBIN [4]: 12.5 G/DL
LEUKOCYTE COUNT [4]: 16.63 x10E3/uL
LYMPHOCYTE [4]: 80%
MEAN CORPUSCULAR HEMOGLOBIN [4]: 24.07 pg
MEAN CORPUSCULAR HEMOGLOBIN CONCENTRATION [4]: 37.77 G/DL
MEAN CORPUSCULAR VOLUME [4]: 63.73 fL
MONOCYTE [4]: 2.67%
NEUTROPHIL [4]: 16.67%
NUCLEATED RED BLOOD CELLS [4]: 0 /100WBC
PLATELET COUNT [4]: 1546 x10E3/uL
ALANINE AMINOTRANSFERASE [4]: 55 u/L
ALBUMIN [4]: 3.33 G/DL
ALKALINE PHOSPHATASE [4]: 217 u/L
ASPARTATE AMINOTRANSFERASE [4]: 111.33 u/L
BLOOD UREA NITROGEN [4]: 13.67 mg/dL
CARBON DIOXIDE [4]: 23 mmol/L
CHLORIDE [4]: 109.33 MEQ/L
CHOLESTEROL [4]: 66 mg/dL
CREATINE PHOSPHOKINASE [4]: 1000 u/L
CREATININE [4]: 0.19 mg/dL
GLUCOSE [4]: 170 mg/dL
LACTATE DEHYDROGENASE [4]: 160 u/L
LIPASE [4]: 8 u/L
PHOSPHORUS [4]: 12.67 mg/dL
POTASSIUM [4]: 6.26 MEQ/L
SODIUM [4]: 147.7 MEQ/L
TOTAL BILIRUBIN [4]: 0.17 mg/dL
TOTAL PROTEIN [4]: 5.03 G/DL
URIC ACID [4]: 2.6 mg/dL
